Source: patent US9107411B2, “Indolecarboxamides and benzimidazolecarboxamides as insecticides and acaricides” (BAYER INTELLECTUAL PROPERTY GMBH, priority 2011, dated 2015)
Like-named read-outs stand apart in the source and are kept apart here.

Legend:
adult Musca domestica = test: Musca domestica test (MUSCDO); type: in vivo; conditions: application rate 100 ppm; treated sponge; after 2 days
Method: (§1) Musca domestica Test (MUSCDO) Solvent: dimethyl sulphoxide To prepare an appropriate active ingredient formulation, 10 mg of active ingredient are mixed with 0.5 ml of dimethyl sulphoxide and the concentrate is diluted with water to the desired concentration. Vessels containing a sponge treated with the active ingredient formulation of the desired concentration are populated with adult Musca domestica. After 2 days, the kill in % is determined 100% means that all of the flies have been killed; 0% means that none of the flies have been killed.

Lucilia cuprina larvae = test: Lucilia cuprina test (LUCICU); type: in vivo; conditions: application rate 100 ppm; treated horse meat; after 2 days
Method: as §1, with “Lucilia cuprina” for “Musca domestica”, “(LUCICU)” for “(MUSCDO)”, “horse meat” for “a sponge”, “about 20 Lucilia cuprina larvae.” for “adult Musca domestica.”, “determined.” for “determined”, “larvae” for “flies”

Ctenocephalides felis = Ctenocephalides felis oral (CTECFE); type: in vivo; conditions: application rate 100 ppm in citrated cattle blood; after 2 days
Method: Ctenocephalides felis Oral ([…]) Solvent: 1 part by weight of dimethyl sulphoxide For the purpose of preparing an appropriate active ingredient formulation, 10 mg of active ingredient are mixed with 0.5 ml of dimethyl sulphoxide. A portion of the concentrate is diluted with citrated cattle blood, and the desired concentration is prepared. About 20 unfed adult fleas (Ctenocephalides felis) are placed into a chamber which is closed at the top and bottom with gauze. A metal cylinder whose bottom end is closed with Parafilm is placed onto the chamber. The cylinder contains the blood/active ingredient formulation, which can be imbibed by the fleas through the Parafilm membrane. After 2 days, the kill in % is determined 100% means that all of the fleas have been killed; 0% means that none of the fleas have been killed.

Boophilus microplus = Boophilus microplus test (BOOPMI injection); type: in vivo; conditions: application rate 20 μg/animal; injected into the abdomen; after 7 days
Method: Boophilus microplus Test (BOOPMI Injection) Solvent: dimethyl sulphoxide To prepare an appropriate active ingredient formulation, 10 mg of active ingredient are mixed with 0.5 ml of solvent and the concentrate is diluted with solvent to the desired concentration. The active ingredient solution is injected into the abdomen (Boophilus microplus), and the animals are transferred into dishes and stored in a climate-controlled room. After 7 days, the efficacy in % is determined. The activity is assessed by laying of fertile eggs. 100% means that none of the ticks has laid any fertile eggs.

logP (HPLC-MS) = type: physicochemical
Phaedon cochleariae = test: Phaedon test (PHAECO spray treatment); type: in vivo; conditions: Chinese cabbage leaf discs, after 7 days
Method in brief: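 Larval mortality was assessed 7 days after Phaedon cochleariae larvae were placed on dried, spray-treated Brassica pekinensis leaf discs. The formulation was an acetone/dimethylformamide concentrate with alkylaryl polyglycol ether emulsifier, diluted in emulsifier-containing water. Results are given as % kill, from 0 (no larvae dead) to 100 (all dead).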

Spodoptera frugiperda = Spodoptera frugiperda test (SPODFR spray treatment); type: in vivo; conditions: maize leaf discs, after 7 days
Method in brief: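 Mortality read-out at 7 days, given as % efficacy, where 100% means every caterpillar dead and 0% none. Caterpillars were placed on dried maize leaf discs that had been sprayed with test formulation. That formulation was an acetone/dimethylformamide concentrate diluted in emulsifier-containing water.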

Tetranychus urticae = test: Tetranychus test, OP-resistant (TETRUR spray treatment); type: in vivo; conditions: bean leaf discs, after 6 days
Method: Tetranychus Test, OP-Resistant (TETRUR Spray Treatment)
Solvent: 78.0 parts by weight of acetone • • 1.5 parts by weight of dimethylformamide
Emulgator: 0.5 part by weight of alkylaryl polyglycol ether
To produce an appropriate active ingredient formulation, 1 part by weight of active ingredient is mixed with the stated amounts of solvent and emulsifier, and the concentrate is diluted with emulsifier-containing water to the desired concentration.
Discs of bean leaves (Phaseolus vulgaris) infested by all stages of the red spider mite (Tetranychus urticae) are sprayed with an active ingredient formulation of the desired concentration.
After 6 days, the efficacy in % is determined. 100% means that all of the spider mites have been killed; 0% means that none of the spider mites have been killed.

[1] = HPLC, reversed-phase column (C18), acidic range pH 2.7, acetonitrile (0.1% formic acid)/water gradient, 43° C., calibration with unbranched alkan-2-ones

Structure (SMILES) | log p (logP (HPLC-MS); [1]) | chromatographic logP (logP (HPLC-MS); HPLC, reversed-phase column (C18), acidic range pH 2.7, acetonitrile (0.1% formic acid)/water gradient, 43° C., calibration with unbranched alkan-2-ones, read-out: log p) | chromatographic logP (logP (HPLC-MS); HPLC-MS) | efficacy (kill in %) (adult Musca domestica) [%] | efficacy (kill in %) (Lucilia cuprina larvae) [%] | efficacy (kill in %) (Ctenocephalides felis) [%] | efficacy (laying of fertile eggs) (Boophilus microplus) [%] | efficacy in % (Phaedon cochleariae; application rate 100 g/ha) [%] | efficacy in % (Spodoptera frugiperda; application rate 100 g/ha) [%] | efficacy in % (Tetranychus urticae; application rate 100 g/ha) [%] | efficacy in % (Tetranychus urticae; application rate 500 g/ha) [%] | efficacy in % (Phaedon cochleariae; application rate 500 g/ha) [%] | efficacy in % (Spodoptera frugiperda; application rate 500 g/ha) [%] | pest or weed control at 100 g/ha (Phaedon cochleariae; Phaedon cochleariae, foliar, 168 h, application rate 100 g/ha, read-out: efficacy in %) [%]
CCn1c(C(=O)NC(c2cccc(C(F)(F)F)c2)C(F)(F)F)cc2cc(C(=O)NC3(C)CC3)c(Cl)cc21 (centres unmarked) [Compound 22] | 4.16 | – | – | 100 | 100 | 100 | 100 | 100 | 83 | 80 | – | – | – | –
CCn1c(C(=O)NC(c2cc(Cl)cc(Cl)c2)C(F)(F)F)cc2cc(C(=O)NC3CC3)c(Cl)cc21 (centres unmarked) [Compound 13] | 4.27 | – | – | 100 | 100 | 100 | 100 | – | – | – | 80 | 100 | 100 | –
CCn1c(C(=O)NC(c2ccc(F)c(Cl)c2)C(F)(F)F)cc2cc(C(=O)NC3(C#N)CC3)c(Cl)cc21 (centres unmarked) [Compound 20] | 3.79 | – | – | 100 | 100 | 100 | 100 | 100 | 100 | 80 | – | – | – | –
CCn1c(C(=O)NC(c2ccc(F)c(C(F)(F)F)c2)C(F)(F)F)cc2cc(C(=O)NC3CC3)c(C)cc21 (centres unmarked) [Compound 188] | 3.76 | – | – | 100 | 100 | 100 | 100 | 100 | 100 | 100 | – | – | – | –

Further lines, with some results ahead:

log p (logP (HPLC-MS); [1]) | chromatographic logP (logP (HPLC-MS); HPLC, reversed-phase column (C18), acidic range pH 2.7, acetonitrile (0.1% formic acid)/water gradient, 43° C., calibration with unbranched alkan-2-ones, read-out: log p) | chromatographic logP (logP (HPLC-MS); HPLC-MS) | Structure (SMILES) | efficacy (kill in %) (adult Musca domestica) [%] | efficacy (kill in %) (Lucilia cuprina larvae) [%] | efficacy (kill in %) (Ctenocephalides felis) [%] | efficacy (laying of fertile eggs) (Boophilus microplus) [%] | efficacy in % (Phaedon cochleariae; application rate 100 g/ha) [%] | efficacy in % (Spodoptera frugiperda; application rate 100 g/ha) [%] | efficacy in % (Tetranychus urticae; application rate 100 g/ha) [%] | efficacy in % (Tetranychus urticae; application rate 500 g/ha) [%] | efficacy in % (Phaedon cochleariae; application rate 500 g/ha) [%] | efficacy in % (Spodoptera frugiperda; application rate 500 g/ha) [%] | pest or weed control at 100 g/ha (Phaedon cochleariae; Phaedon cochleariae, foliar, 168 h, application rate 100 g/ha, read-out: efficacy in %) [%]
4.06 | – | – | CCn1c(C(=O)NC(c2cccc(C(F)(F)F)c2)C(F)(F)F)cc2cc(C(=O)NCC(C)(F)F)c(Cl)cc21 (centres unmarked) [Compound 10] | 100 | 100 | 95 | 100 | 100 | 83 | – | – | – | – | –
3.57 | – | – | C#CCn1c(C(=O)NC(c2ccc(F)c(Cl)c2)C(F)(F)F)cc2cc(C(=O)NC3CC3)c(Cl)cc21 (centres unmarked) [Compound 63] | 100 | 100 | 100 | 100 | 100 | 100 | 100 | – | – | – | –
– | 3.49 | 3.49 | C#CCn1c(C(=O)NC(c2cccc(C(F)(F)F)c2)C(F)(F)F)cc2cc(C(=O)NC3(C#N)CC3)c(Cl)cc21 (centres unmarked) [Compound 57, 6-chloro-N^5-(1-cyanocyclopropyl)-1-(prop-2-yn-1-yl)-N^2-{2,2,2-trifluoro-1-[3-(trifluoromethyl)phenyl]ethyl}-1H-indole-2,5-dicarboxamide] | 100 | 100 | 100 | 100 | – | 100 | 100 | – | – | – | 100
3.70 | – | – | CCn1c(C(=O)NC(c2ccc(F)c(Br)c2)C(F)(F)F)cc2cc(C(=O)NC3CC3)c(C)cc21 (centres unmarked) [Compound 190] | 100 | 100 | 100 | 100 | 100 | 100 | 100 | – | – | – | –
3.89 | – | – | CCn1c(C(=O)NC(c2cccc(C(F)(F)F)c2)C(F)(F)F)cc2cc(C(=O)NC(C)(C)C#N)c(Cl)cc21 (centres unmarked) [Compound 15] | 100 | 100 | 100 | 100 | 100 | 100 | – | – | – | – | –
